Test results taken from BindingDB's records for doi:10.1074/jbc.M113.480210 (University of Copenhagen, 2013).

Columns and labels:
Assay in all cases: Two-electrode Voltage Clamp Electrophysiology
Conditions in all cases: pH 7.4; 25 °C
[1] = target: Glutamate receptor ionotropic, NMDA 2B (Rat, UniProt Q00960+Q62683)
Experimental: (§1) Two-electrode voltage clamp (TEVC) recordings were performed on Xenopus oocytes at room temperature 3-6 days postinjection using an OC-725C TEVC amplifier (Warner Instruments, Hamden, CT). […] Voltage and current electrodes were filled with 0.3 and 3 M KCl, respectively. During recordings, oocytes were placed in a recording chamber and perfused with the extracellular recording solution comprised of 90 mM NaCl, 1 mM KCl, 10 mM HEPES, 0.5 mM BaCl2, and 0.01 mM EDTA (pH 7.4 with NaOH). Current responses were recorded at a holding potential of -40 and -60 mV for GluN1/N2 and GluN1/N3 receptors, respectively. Compounds were dissolved in extracellular recording solution and applied to the oocyte by gravity-driven perfusion using a computer-controlled 8-modular valve positioner (Digital MVP, Hamilton, Reno, NV).

[2] = target: Glutamate receptor ionotropic, NMDA 2A (Rat, UniProt Q00959+Q62683)
Glutamate receptor ionotropic, NMDA 2A, sequence (Q00959 whole entry, other chains not shown): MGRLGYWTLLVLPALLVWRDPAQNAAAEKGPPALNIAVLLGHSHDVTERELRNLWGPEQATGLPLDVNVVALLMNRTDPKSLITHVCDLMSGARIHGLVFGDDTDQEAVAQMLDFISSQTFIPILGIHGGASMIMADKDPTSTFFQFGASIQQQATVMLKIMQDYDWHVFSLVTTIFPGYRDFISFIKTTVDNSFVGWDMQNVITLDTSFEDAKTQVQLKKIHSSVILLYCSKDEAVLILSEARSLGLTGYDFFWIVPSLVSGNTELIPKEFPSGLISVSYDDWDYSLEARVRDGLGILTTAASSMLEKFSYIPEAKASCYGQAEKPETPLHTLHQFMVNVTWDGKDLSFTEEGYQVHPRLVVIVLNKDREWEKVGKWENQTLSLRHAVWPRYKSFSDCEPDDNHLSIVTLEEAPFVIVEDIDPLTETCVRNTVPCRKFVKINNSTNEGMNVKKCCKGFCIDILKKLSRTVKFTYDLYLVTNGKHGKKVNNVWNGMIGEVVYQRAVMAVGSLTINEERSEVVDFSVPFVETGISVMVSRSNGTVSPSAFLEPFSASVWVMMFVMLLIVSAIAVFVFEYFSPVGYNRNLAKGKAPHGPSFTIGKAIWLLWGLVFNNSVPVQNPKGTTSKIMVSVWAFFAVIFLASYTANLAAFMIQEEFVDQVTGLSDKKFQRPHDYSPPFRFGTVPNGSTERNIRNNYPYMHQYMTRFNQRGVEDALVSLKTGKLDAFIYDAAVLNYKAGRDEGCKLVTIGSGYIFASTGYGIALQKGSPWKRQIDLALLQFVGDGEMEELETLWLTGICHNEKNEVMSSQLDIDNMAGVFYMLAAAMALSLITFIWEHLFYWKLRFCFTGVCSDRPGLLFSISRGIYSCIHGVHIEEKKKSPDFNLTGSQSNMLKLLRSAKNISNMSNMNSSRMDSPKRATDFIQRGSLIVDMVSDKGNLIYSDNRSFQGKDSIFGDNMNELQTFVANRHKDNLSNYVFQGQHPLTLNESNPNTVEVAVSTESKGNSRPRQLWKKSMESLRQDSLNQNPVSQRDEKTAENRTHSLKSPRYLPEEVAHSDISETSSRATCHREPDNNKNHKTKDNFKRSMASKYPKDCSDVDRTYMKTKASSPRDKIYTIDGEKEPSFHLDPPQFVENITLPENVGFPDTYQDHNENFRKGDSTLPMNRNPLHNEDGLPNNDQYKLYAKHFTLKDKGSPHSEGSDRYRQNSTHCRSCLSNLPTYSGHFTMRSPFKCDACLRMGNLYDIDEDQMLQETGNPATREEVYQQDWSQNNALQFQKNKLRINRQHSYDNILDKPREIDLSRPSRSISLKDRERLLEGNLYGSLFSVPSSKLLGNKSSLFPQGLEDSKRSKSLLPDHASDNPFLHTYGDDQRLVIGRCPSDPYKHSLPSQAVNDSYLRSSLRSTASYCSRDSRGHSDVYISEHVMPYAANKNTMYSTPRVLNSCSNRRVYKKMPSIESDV
Experimental: as §1

[3] = target: Glutamate receptor ionotropic, NMDA 2D (Rat, UniProt Q62645+Q62683)
Experimental: as §1

Glutamate receptor 1 = Glutamate receptor 1 (Rattus norvegicus, UniProt P19490)
Glutamate receptor 1, sequence (P19490 whole entry): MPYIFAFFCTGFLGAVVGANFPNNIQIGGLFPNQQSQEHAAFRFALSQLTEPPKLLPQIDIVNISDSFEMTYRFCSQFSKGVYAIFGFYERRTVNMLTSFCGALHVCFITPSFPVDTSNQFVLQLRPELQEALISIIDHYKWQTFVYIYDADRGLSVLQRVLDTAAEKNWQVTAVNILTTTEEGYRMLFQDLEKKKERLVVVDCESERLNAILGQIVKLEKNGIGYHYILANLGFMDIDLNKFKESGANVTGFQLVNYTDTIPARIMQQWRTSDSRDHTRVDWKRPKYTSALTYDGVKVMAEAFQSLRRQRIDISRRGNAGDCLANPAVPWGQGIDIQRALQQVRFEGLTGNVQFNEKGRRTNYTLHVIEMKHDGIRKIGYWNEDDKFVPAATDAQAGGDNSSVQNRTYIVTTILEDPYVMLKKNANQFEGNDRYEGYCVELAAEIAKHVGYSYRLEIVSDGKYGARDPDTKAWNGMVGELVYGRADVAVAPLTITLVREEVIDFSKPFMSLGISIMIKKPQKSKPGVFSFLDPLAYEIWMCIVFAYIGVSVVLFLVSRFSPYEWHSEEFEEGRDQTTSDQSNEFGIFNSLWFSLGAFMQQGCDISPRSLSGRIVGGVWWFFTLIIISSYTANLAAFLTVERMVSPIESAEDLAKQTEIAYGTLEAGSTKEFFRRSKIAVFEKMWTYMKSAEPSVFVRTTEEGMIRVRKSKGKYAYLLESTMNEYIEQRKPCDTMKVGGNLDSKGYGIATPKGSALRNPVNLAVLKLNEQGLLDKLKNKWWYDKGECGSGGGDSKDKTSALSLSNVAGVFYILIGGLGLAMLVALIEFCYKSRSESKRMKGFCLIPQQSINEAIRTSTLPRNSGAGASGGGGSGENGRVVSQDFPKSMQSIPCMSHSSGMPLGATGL
Experimental: as §1

[4] = target: Glutamate receptor ionotropic, NMDA 2C (Rat, UniProt Q00961+Q62683)
Experimental: as §1

[5] = target: Glutamate receptor ionotropic, NMDA 1 [F484A,T518L]/3A (Rattus norvegicus, UniProt P35439+Q9R1M7, F484A/T518L)
Glutamate receptor ionotropic, NMDA 1 [F484A,T518L]/3A, sequence (Q9R1M7 24-1135 limits assumed, other chains not shown): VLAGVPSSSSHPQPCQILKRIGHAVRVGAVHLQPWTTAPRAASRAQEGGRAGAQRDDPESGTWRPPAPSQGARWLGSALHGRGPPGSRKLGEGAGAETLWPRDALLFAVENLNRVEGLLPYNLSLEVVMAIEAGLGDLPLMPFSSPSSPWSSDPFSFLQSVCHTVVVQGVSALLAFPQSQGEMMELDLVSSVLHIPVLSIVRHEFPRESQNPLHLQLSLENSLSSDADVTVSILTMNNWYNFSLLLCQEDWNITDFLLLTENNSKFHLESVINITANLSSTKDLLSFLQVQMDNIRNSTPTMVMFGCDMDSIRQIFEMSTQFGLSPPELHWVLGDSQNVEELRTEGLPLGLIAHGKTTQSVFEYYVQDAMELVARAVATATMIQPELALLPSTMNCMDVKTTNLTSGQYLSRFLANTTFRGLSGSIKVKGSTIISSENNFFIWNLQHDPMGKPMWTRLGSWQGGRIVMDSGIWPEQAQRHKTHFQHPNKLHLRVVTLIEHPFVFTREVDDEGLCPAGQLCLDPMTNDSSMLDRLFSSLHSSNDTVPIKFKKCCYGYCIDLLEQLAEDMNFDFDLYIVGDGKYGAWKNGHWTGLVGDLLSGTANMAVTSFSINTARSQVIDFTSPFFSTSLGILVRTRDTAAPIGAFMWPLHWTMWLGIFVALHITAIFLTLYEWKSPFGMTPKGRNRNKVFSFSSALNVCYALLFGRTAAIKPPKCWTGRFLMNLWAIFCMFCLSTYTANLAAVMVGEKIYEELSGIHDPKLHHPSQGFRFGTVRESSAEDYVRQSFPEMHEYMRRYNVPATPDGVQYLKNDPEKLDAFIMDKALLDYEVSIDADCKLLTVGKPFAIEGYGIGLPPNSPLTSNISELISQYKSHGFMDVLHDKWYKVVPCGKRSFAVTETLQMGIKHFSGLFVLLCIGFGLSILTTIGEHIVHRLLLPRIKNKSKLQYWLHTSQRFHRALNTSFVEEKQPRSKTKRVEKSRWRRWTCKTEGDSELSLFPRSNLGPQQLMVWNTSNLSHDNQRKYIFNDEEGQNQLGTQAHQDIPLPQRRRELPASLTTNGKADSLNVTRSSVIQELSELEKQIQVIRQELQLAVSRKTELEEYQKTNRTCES
Experimental: as §1

[6] = target: Glutamate receptor ionotropic, NMDA 1 [F484A,T518L]/3B (Rattus norvegicus, UniProt P35439+Q8VHN2, F484A/T518L)
Glutamate receptor ionotropic, NMDA 1 [F484A,T518L]/3B, sequence (Q8VHN2 25-1002 limits assumed, other chains not shown): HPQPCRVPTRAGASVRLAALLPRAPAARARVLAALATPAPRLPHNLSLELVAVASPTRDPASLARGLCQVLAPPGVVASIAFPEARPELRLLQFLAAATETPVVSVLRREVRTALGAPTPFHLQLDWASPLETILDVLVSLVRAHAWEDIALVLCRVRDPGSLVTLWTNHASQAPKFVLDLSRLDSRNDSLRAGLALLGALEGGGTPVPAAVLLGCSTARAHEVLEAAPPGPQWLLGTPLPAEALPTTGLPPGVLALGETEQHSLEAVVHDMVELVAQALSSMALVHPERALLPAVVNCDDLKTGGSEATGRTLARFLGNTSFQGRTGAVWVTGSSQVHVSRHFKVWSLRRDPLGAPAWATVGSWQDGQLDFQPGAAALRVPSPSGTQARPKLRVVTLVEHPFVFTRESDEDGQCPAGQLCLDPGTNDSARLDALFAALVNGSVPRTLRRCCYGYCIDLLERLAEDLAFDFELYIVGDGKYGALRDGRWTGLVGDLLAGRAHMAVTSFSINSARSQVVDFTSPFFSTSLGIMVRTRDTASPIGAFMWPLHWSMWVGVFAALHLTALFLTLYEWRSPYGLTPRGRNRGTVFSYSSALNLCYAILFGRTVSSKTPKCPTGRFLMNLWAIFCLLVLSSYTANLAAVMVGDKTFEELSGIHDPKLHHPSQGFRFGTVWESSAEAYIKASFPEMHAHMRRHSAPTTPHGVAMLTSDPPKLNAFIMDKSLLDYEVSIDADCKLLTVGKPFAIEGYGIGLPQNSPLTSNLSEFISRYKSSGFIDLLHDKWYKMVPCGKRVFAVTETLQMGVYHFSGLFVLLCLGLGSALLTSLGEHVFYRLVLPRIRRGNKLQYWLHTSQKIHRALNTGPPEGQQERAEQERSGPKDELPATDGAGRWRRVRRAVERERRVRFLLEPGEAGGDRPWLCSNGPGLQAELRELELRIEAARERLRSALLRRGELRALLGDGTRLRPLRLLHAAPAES
Experimental: as §1

Ki [1] [nM] | IC50 [2] [nM] | Ki [2] [nM] | Ki [3] [nM] | IC50 (Glutamate receptor 1) [nM] | Ki (Glutamate receptor 1) [nM] | Ki [4] [nM] | IC50 [5] [nM] | Ki [5] [nM] | IC50 [6] [nM] | Ki [6] [nM] | Compound
> 1300 | 770 | 560 | > 300 | > 300000 | > 180000 | > 800 | – | – | – | – | O=c1[nH]c2ccccc2n2c(S)nnc12 [1-thioxo-1,2-dihydro-[1,2,4]triazolo[4,3-a]-quinoxalin-4(5H)-one]
– | 92 | 65 | – | – | – | – | 97000 | 35000 | > 300000 | > 150000 | O=C(O)c1cc(O)c2c(Cl)cc(Cl)cc2n1 [5,7-Dichlorokynurenic acid (5,7-DCKA)]
